Reference: patent US20190330529A1, “USE AND COMPOSITION OF BUFFER FORMULATION WITH MULTIPLE PH VALUES AND UREASE ACTIVITY INHIBITOR” (ECO-GEO BIO-TECHNOLOGY COMPANY LIMITED, priority 2018, published 2019)

What was measured:
[1] = molecular target: T1, urease (U7752, Sigma-Aldrich) (Canavalia ensiformis, UniProt P07374); experiment: Inhibition of the activity of the urease in phosphate buffer solution (Berthelot, absorbance 625 nm); format: biochemical
T1 construct: purchased Sigma-Aldrich U7752
Experimental: 1. Experiment of the Inhibition of the Activity of the Urease (in Phosphate Buffer Solution, pH 5.0)
1.1 Control group: 20 μL of the buffer solution and 25 μL of 50 ppm urease (U7752, Sigma-Aldrich) were added and mixed in wells of a 96-well plate. After the mixture reacted at 37° C. for 5 minutes, 40 μL of 20 mM urea solution was added into the mixture. After the mixture reacted at 37° C. for 10 minutes, 55 μL of Berthelot reagent A (prepared by mixing 5 g of phenol and 25 mg of sodium nitroprusside and diluting the mixture to 500 mL with purified water) and 60 μL of Berthelot reagent B (prepared by mixing 2.5 g of sodium hydroxide and 4.2 mL of sodium hypochlorite and diluting the mixture to 500 mL with purified water) were added into each well. The mixture was held in the dark at 37° C. for 30 minutes, and the absorbance was measured at 625 nm wavelength by an enzyme-linked immuno-sorbent assay (ELISA) reader. Each sample was measured at least in triplicate.
(§1) 1.2 Ascorbic acid groups: 10 μL of the buffer solution, 10 μL of ascorbic acid solution and 25 μL of 50 ppm urease were added and mixed in wells of a 96-well plate. After the mixture reacted at 37° C. for 5 minutes, 40 μL of 20 mM urea solution was added into the mixture to make the final concentrations of the ascorbic acid as 120 ppm, 240 ppm and 480 ppm, respectively. After the mixture reacted at 37° C. for 10 minutes, 55 μL of Berthelot reagent A and 60 μL of Berthelot reagent B were added into each well. The mixture was held in the dark at 37° C. for 30 minutes, and the absorbance was measured at 625 nm wavelength by the ELISA reader. Each sample was measured at least in triplicate. The inhibition % of the activity of the urease=100−((the absorbance of the sample/the absorbance of the control group)×100).
2. Experiment of the Inhibition of the Activity of the Urease (in Phosphate Buffer Solution, pH 6.0)
(§2) 2.1 Control group: 20 μL of the buffer solution and 25 μL of 50 ppm urease were added and mixed in wells of a 96-well plate. After the mixture reacted at 37° C. for 5 minutes, 40 μL of 20 mM urea solution was added into the mixture. After the mixture reacted at 37° C. for 10 minutes, 55 μL of Berthelot reagent A and 60 μL of Berthelot reagent B were added into each well. The mixture was held in the dark at 37° C. for 30 minutes, and the absorbance was measured at 625 nm wavelength by the ELISA reader. Each sample was measured at least in triplicate.
as §1, with “2.2” for “1.2”
3. Experiment of the Inhibition of the Activity of the Urease (in Phosphate Buffer Solution, pH 6.8)
as §2, with “3.1” for “2.1”, “triplicate. […]” for “triplicate.”

[2] = molecular target: T1, urease (U7752, Sigma-Aldrich); experiment: Inhibition of the activity of the urease in citric acid salt buffer solution (Berthelot, absorbance 625 nm); format: biochemical
Experimental: as §2, with “7.1 Control group:” for “2.1”
as §1, with “7.2” for “1.2”
as §2, with “8.1 Control group:” for “2.1”
as §1, with “8.2” for “1.2”
as §2, with “9.1 Control group:” for “2.1”
as §1, with “9.2” for “1.2”, “Each sample was measured at least in triplicate. The inhibition % of the activity of the urease=100−((the absorbance of the sample/the absorbance of the control group)×100).” left out

[3] = pH 5, read-out: inhibition % of the activity of the urease
[4] = pH 6, read-out: inhibition % of the activity of the urease
[5] = pH 6.8, read-out: inhibition % of the activity of the urease
[6] = pH 7, read-out: inhibition % of the activity of the urease
[7] = pH 7.3, read-out: inhibition % of the activity of the urease
[8] = pH 8, read-out: inhibition % of the activity of the urease

T1 sequence (P07374 whole entry, looked up): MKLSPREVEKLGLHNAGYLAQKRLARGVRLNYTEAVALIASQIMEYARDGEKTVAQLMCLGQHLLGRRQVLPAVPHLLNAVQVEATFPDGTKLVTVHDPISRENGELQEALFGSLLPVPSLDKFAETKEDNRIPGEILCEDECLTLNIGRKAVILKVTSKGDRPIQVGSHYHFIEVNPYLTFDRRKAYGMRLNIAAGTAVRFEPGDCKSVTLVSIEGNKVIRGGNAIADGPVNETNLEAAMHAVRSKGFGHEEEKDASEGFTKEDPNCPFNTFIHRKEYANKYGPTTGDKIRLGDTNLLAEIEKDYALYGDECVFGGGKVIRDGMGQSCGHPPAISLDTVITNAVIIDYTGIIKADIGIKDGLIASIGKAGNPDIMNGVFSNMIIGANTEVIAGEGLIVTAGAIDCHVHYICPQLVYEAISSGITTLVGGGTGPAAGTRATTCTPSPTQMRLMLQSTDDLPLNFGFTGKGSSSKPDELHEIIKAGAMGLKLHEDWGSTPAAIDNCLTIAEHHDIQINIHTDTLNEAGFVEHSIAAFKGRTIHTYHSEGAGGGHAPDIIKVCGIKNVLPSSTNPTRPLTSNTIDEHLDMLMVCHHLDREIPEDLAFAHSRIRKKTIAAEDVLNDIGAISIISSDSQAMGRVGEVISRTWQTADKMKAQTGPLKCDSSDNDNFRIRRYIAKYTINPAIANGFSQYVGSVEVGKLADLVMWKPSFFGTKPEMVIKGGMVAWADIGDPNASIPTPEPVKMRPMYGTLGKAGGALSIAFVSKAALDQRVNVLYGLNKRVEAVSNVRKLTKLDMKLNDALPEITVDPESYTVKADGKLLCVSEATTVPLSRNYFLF

O=C1O[C@H]([C@@H](O)CO)C(O)=C1O [ascorbic acid]
inhibitory effect on the urease hydrolysis (in words) ([1]; environment with pH 5-8, optical density versus control group): has the inhibitory effect on the urease hydrolysis
inhibitory effect on the urease hydrolysis ([1]; environment with pH 6.8-7.3, summary statement, buffer and concentration not stated): over 90%
inhibition at 120 ppm [1, 3]: 25.7%
inhibition at 240 ppm [1, 3]: 33.1%
inhibition at 480 ppm [1, 3]: 40.5%
inhibition at 120 ppm [1, 4]: 26.7%
inhibition at 240 ppm [1, 4]: 49%
inhibition at 480 ppm [1, 4]: 52.9%
inhibition at 480 ppm ([1]; pH 6, read-out: inhibition of the urea hydrolysis): > 50%
inhibition at 120 ppm [1, 5]: 2%
inhibition at 240 ppm [1, 5]: 37.3%
inhibition at 480 ppm [1, 5]: 96.5%
inhibition at 480 ppm ([1]; pH 6.8, read-out: inhibition of the urea hydrolysis): > 93%
inhibition at 120 ppm [1, 6]: 16.1%
inhibition at 240 ppm [1, 6]: 59.4%
inhibition at 480 ppm [1, 6]: 97.2%
inhibition at 120 ppm [1, 7]: 11.3%
inhibition at 240 ppm [1, 7]: 34.6%
inhibition at 480 ppm [1, 7]: 93.6%
inhibition at 120 ppm [1, 8]: 8.1%
inhibition at 240 ppm [1, 8]: 33.3%
inhibition at 480 ppm [1, 8]: 77.7%
inhibition at 120 ppm ([2]; pH 6.8, read-out: inhibition % of the activity of the urease, 120 ppm ascorbic acid, citrate buffer solution, pH 6.8): -6.8%
inhibition at 240 ppm ([2]; pH 6.8, read-out: inhibition % of the activity of the urease, 240 ppm ascorbic acid, citrate buffer solution, pH 6.8): 66%
inhibition at 480 ppm ([2]; pH 6.8, read-out: inhibition % of the activity of the urease, 480 ppm ascorbic acid, citrate buffer solution, pH 6.8): 93.5%
inhibition at 480 ppm ([2]; pH 6.8, read-out: inhibition of the urea hydrolysis, 480 ppm ascorbic acid, citrate buffer solution, pH 6.8-7.0): > 90%
inhibition at 480 ppm ([2]; pH 6.8, read-out: inhibition of the urea hydrolysis, 480 ppm ascorbic acid, citrate buffer solution, pH 6.8-7.3): > 50%
inhibition at 120 ppm ([2]; pH 7, read-out: inhibition % of the activity of the urease, 120 ppm ascorbic acid, citrate buffer solution, pH 7.0): -25.2%
inhibition at 240 ppm ([2]; pH 7, read-out: inhibition % of the activity of the urease, 240 ppm ascorbic acid, citrate buffer solution, pH 7.0): 32.6%
inhibition at 480 ppm ([2]; pH 7, read-out: inhibition % of the activity of the urease, 480 ppm ascorbic acid, citrate buffer solution, pH 7.0): 93.6%
inhibition at 120 ppm ([2]; pH 7.3, read-out: inhibition % of the activity of the urease, 120 ppm ascorbic acid, citrate buffer solution, pH 7.3): -19.7%
inhibition at 240 ppm ([2]; pH 7.3, read-out: inhibition % of the activity of the urease, 240 ppm ascorbic acid, citrate buffer solution, pH 7.3): 27.1%
inhibition at 480 ppm ([2]; pH 7.3, read-out: inhibition % of the activity of the urease, 480 ppm ascorbic acid, citrate buffer solution, pH 7.3): 75.3%
